Source: patent US20250144067A1, “PERSONALIZED STARVATION THERAPY FOR CANCER” (Faeth Therapeutics, Inc., priority 2021, published 2025)
Counter-ions that a name gives are not always drawn.

Tests used:
[1] = tested on: NCI-H292 lung cancer cells; experiment: FDA drug screening, complete media vs cholesterol-free media without statin (TABLE 1); assay type: cell-based, human
[2] = tested on: NCI-H292 lung cancer cells; experiment: FDA drug screening, complete media vs cholesterol-free media with simvastatin (TABLE 2); assay type: cell-based, human; details: for Cholesterol-free media + simvastatin (0.04 μM) / Complete Media: NCI-H292 cells
[3] = Complete minus Cholesterol-free, greater than 0 enhanced anti-cancer activity, about 0 neutral, below 0 antagonist
[4] = NCI-H292 cells, FDA drug library screen, cholesterol-free media without statin
[5] = NCI-H292 cells, FDA drug library screen, complete media
[6] = cholesterol-free media with simvastatin 0.04 μM, cell growth value in FDA drug screen
[7] = complete media, cell growth value in FDA drug screen
[8] = complete media minus cholesterol-free media + simvastatin, >0 enhanced anti-cancer activity, about 0 neutral, <0 antagonist
[9] = NCI-H292 cells, cholesterol-free media without statin
[10] = complete vs cholesterol-free media, greater than 0 enhanced anti-cancer activity, about 0 neutral, below 0 antagonists
[11] = FDA library drug in cholesterol-free media with simvastatin 0.04 μM
[12] = FDA library drug in complete media
[13] = complete media vs cholesterol-free media + simvastatin (0.04 μM), >0 enhanced anti-cancer activity, about 0 neutral, <0 antagonist
[14] = Complete minus Cholesterol-free, >0 enhanced anti-cancer activity, about 0 neutral, <0 antagonist
[15] = FDA drug library screen, cholesterol-free media with simvastatin 0.04 μM
[16] = FDA drug library screen, complete media
[17] = NCI-H292 cells, cholesterol-free media without statin, FDA drug library screen
[18] = NCI-H292 cells, complete media, FDA drug library screen
[19] = complete vs cholesterol-free media, >0 enhanced anti-cancer activity, about 0 neutral, <0 antagonist
[20] = cholesterol-free media with simvastatin 0.04 μM, FDA drug library screen (TABLE 2)
[21] = complete media, FDA drug library screen (TABLE 2)
[22] = complete media minus cholesterol-free media + simvastatin (0.04 μM), >0 enhanced anti-cancer activity, about 0 neutral, <0 antagonist
[23] = Complete minus Cholesterol-free, greater than 0 enhanced anti-cancer activity, about 0 neutral, below 0 antagonists
[24] = NCI-H292 cells in cholesterol-free media without statin
[25] = NCI-H292 cells in complete media
[26] = drug in cholesterol-free media with simvastatin 0.04 μM

COC(=O)C1=C(C)NC(C)=C(C(=O)OCCN2CCN(C(c3ccccc3)c3ccccc3)CC2)C1c1cccc([N+](=O)[O-])c1 (stereo not shown) [Manidipine (dihydrochloride)]
Difference [1, 3]: −0.08
Cholesterol-free [1, 4]: 0.814
Complete [1, 5]: 0.7357
Cholesterol-free media + simvastatin (0.04 μM) [2, 6]: 1.023
Complete Media [2, 7]: 1.051
Difference [2, 8]: 0.03

CNCCCC12CCC(c3ccccc31)c1ccccc12 [Maprotiline (hydrochloride)]
Cholesterol-free [1, 9]: 1.347
Complete ([1]; NCI-H292 cells, complete media): 0.9995
Difference [1, 10]: −0.35
Cholesterol-free media + simvastatin (0.04 μM) [2, 11]: 1.215
Complete Media [2, 12]: 0.924
Difference [2, 13]: −0.29

Cc1ccc(NC(=O)c2ccc(CN3CCN(C)CC3)cc2)cc1Nc1nc(-c2cccnc2)cs1 [Masitinib]
Difference [1, 14]: −0.19
Cholesterol-free [1, 9]: 0.8775
Complete ([1]; NCI-H292 cells, complete media): 0.6881
Cholesterol-free media + simvastatin (0.04 μM) [2, 15]: 0.9334
Complete Media [2, 16]: 0.8067
Difference [2, 13]: −0.13

COC(=O)Nc1nc2ccc(C(=O)c3ccccc3)cc2[nH]1 [Mebendazole]
Cholesterol-free [1, 17]: 0.1458
Complete [1, 18]: 0.3848
Difference [1, 19]: 0.24
Cholesterol-free media + simvastatin (0.04 μM) [2, 6]: 0.4675
Complete Media [2, 7]: 0.5846
Difference [2, 8]: 0.12

CN1CCc2c(c3ccccc3n2Cc2ccccc2)C1 [Mebhydrolin (napadisylate)]
Cholesterol-free [1, 17]: 1.008
Complete [1, 18]: 1.238
Difference [1, 19]: 0.23
Cholesterol-free media + simvastatin (0.04 μM) [2, 20]: 0.9255
Complete Media [2, 21]: 0.929
Difference [2, 22]: 0.00

CN1CCc2c(c3ccccc3n2Cc2ccccc2)C1 [Mebhydrolin]
Difference [1, 14]: −0.31
Cholesterol-free [1, 9]: 1.813
Complete ([1]; NCI-H292 cells, complete media): 1.508
Cholesterol-free media + simvastatin (0.04 μM) [2, 15]: 0.7768
Complete Media [2, 16]: 0.6781
Difference [2, 13]: −0.10

Cc1cc(C)c(NC(=O)CN(CC(=O)O)CC(=O)O)c(C)c1Br [Mebrofenin]
Difference [1, 3]: −0.13
Cholesterol-free [1, 4]: 1.088
Complete [1, 5]: 0.9614
Cholesterol-free media + simvastatin (0.04 μM) [2, 11]: 1.2
Complete Media [2, 12]: 0.8726
Difference [2, 13]: −0.33

CC1(C)S[C@@H]2[C@H](/N=C/N3CCCCCC3)C(=O)N2[C@H]1C(=O)O [Mecillinam]
Difference [1, 3]: −0.15
Cholesterol-free [1, 4]: 0.9011
Complete [1, 5]: 0.7528
Cholesterol-free media + simvastatin (0.04 μM) [2, 15]: 1.033
Complete Media [2, 16]: 1.74
Difference [2, 8]: 0.71

Cc1ccc(Cl)c(Nc2ccccc2C(=O)O)c1Cl [Meclofenamate (sodium)]
Difference [1, 23]: −0.59
Cholesterol-free [1, 24]: 1.453
Complete [1, 25]: 0.8579
Cholesterol-free media + simvastatin (0.04 μM) [2, 15]: 1.009
Complete Media [2, 16]: 1.718
Difference [2, 8]: 0.71

CN(C)CCOC(=O)COc1ccc(Cl)cc1 [Meclofenoxate (hydrochloride)]
Difference ([1]; Complete minus Cholesterol-free, […]): −0.28
Cholesterol-free [1, 9]: 1.499
Complete ([1]; NCI-H292 cells, complete media): 1.221
Cholesterol-free media + simvastatin (0.04 μM) [2, 20]: 1.001
Complete Media [2, 21]: 0.9764
Difference ([2]; complete media minus cholesterol-free media + simvastatin (0.04 μM), […]): −0.02

Cc1cccc(C(C)c2cnc[nH]2)c1C (stereo not shown) [Medetomidine (hydrochloride)]
Cholesterol-free [1, 9]: 1.452
Complete ([1]; NCI-H292 cells, complete media): 1.139
Difference [1, 10]: −0.31
Cholesterol-free media + simvastatin (0.04 μM) [2, 6]: 0.8752
Complete Media [2, 7]: 0.9447
Difference [2, 8]: 0.07

Cc1cccc(C(C)c2cnc[nH]2)c1C (stereo not shown) [Medetomidine]
Difference [1, 3]: −0.10
Cholesterol-free [1, 4]: 1.034
Complete [1, 5]: 0.9342
Cholesterol-free media + simvastatin (0.04 μM) [2, 11]: 1.094
Complete Media [2, 12]: 0.8138
Difference [2, 13]: −0.28

CC(=O)O[C@]1(C(C)=O)CC[C@H]2[C@@H]3C[C@H](C)C4=CC(=O)CC[C@]4(C)[C@H]3CC[C@@]21C [Medroxyprogesterone acetate]
Cholesterol-free [1, 9]: 1.058
Complete ([1]; NCI-H292 cells, complete media): 0.6058
Difference [1, 10]: −0.45
Cholesterol-free media + simvastatin (0.04 μM) [2, 15]: 1.001
Complete Media [2, 16]: 0.9291
Difference [2, 13]: −0.07

CC(=O)[C@H]1CC[C@H]2[C@@H]3C[C@H](C)C4=CC(=O)CC[C@]4(C)[C@H]3[C@@H](O)C[C@]12C [Medrysone]
Cholesterol-free [1, 17]: 0.895
Complete [1, 18]: 1.283
Difference [1, 19]: 0.39
Cholesterol-free media + simvastatin (0.04 μM) [2, 26]: 1.51
Complete Media ([2]; drug in complete media): 1.254
Difference [2, 13]: −0.26

Cc1cccc(Nc2ccccc2C(=O)O)c1C [Mefenamic acid]
Difference [1, 23]: −0.58
Cholesterol-free [1, 24]: 2.136
Complete [1, 25]: 1.551
Cholesterol-free media + simvastatin (0.04 μM) [2, 15]: 1.014
Complete Media [2, 16]: 0.8951
Difference [2, 13]: −0.12

OC(c1cc(C(F)(F)F)nc2c(C(F)(F)F)cccc12)C1CCCCN1 (stereo not shown) [Mefloquine (hydrochloride)]
Difference [1, 23]: −0.49
Cholesterol-free [1, 24]: 1.439
Complete [1, 25]: 0.9523
Cholesterol-free media + simvastatin (0.04 μM) [2, 15]: 1.137
Complete Media [2, 16]: 1.057
Difference [2, 13]: −0.08

CC(=O)O[C@]1(C(C)=O)CC[C@H]2[C@@H]3C=C(C)C4=CC(=O)CC[C@]4(C)[C@H]3CC[C@@]21C [Megestrol acetate]
Difference [1, 14]: −0.26
Cholesterol-free [1, 9]: 1.189
Complete ([1]; NCI-H292 cells, complete media): 0.9289
Cholesterol-free media + simvastatin (0.04 μM) [2, 11]: 1.252
Complete Media [2, 12]: 0.9647
Difference [2, 13]: −0.29

CNC[C@H](O)[C@@H](O)[C@H](O)[C@H](O)CO [Meglumine]
Difference [1, 14]: −0.26
Cholesterol-free [1, 9]: 1.228
Complete ([1]; NCI-H292 cells, complete media): 0.9693
Cholesterol-free media + simvastatin (0.04 μM) [2, 20]: 1.358
Complete Media [2, 21]: 1.305
Difference [2, 22]: −0.05

CN1C(=O)/C(=C2/C(=O)Nc3ccccc32)c2ccccc21 [Meisoindigo]
Cholesterol-free [1, 17]: 0.8169
Complete [1, 18]: 1.238
Difference [1, 19]: 0.42
Cholesterol-free media + simvastatin (0.04 μM) [2, 15]: 0.9145
Complete Media [2, 16]: 1.461
Difference [2, 8]: 0.55

COc1ccc2[nH]cc(CCNC(C)=O)c2c1 [Melatonin]
Difference [1, 14]: 0.05
Cholesterol-free [1, 17]: 0.9489
Complete [1, 18]: 0.9969
Cholesterol-free media + simvastatin (0.04 μM) [2, 15]: 1.501
Complete Media [2, 16]: 1.753
Difference [2, 8]: 0.25

CN(C)CCC=C1c2ccccc2C(C)(C)c2ccccc21 [Melitracen (hydrochloride)]
Difference [1, 3]: −0.10
Cholesterol-free [1, 4]: 1.283
Complete [1, 5]: 1.187
Cholesterol-free media + simvastatin (0.04 μM) [2, 15]: 1.24
Complete Media [2, 16]: 1.495
Difference [2, 8]: 0.26

Cc1cnc(NC(=O)C2=C(O)c3ccccc3S(=O)(=O)N2C)s1 [Meloxicam]
Complete ([1]; NCI-H292 cells, complete media): 0.7862
Difference [1, 10]: −0.39
Cholesterol-free media + simvastatin (0.04 μM) [2, 6]: 1.111
Difference [2, 8]: 0.12

CC12CC3CC(C)(C1)CC(N)(C3)C2 [Memantine (hydrochloride)]
Difference [1, 3]: −0.14
Cholesterol-free [1, 4]: 0.8008
Complete [1, 5]: 0.656
Cholesterol-free media + simvastatin (0.04 μM) [2, 6]: 0.8007
Complete Media [2, 7]: 0.853
Difference [2, 8]: 0.05

CC1(S(=O)(=O)[O-])CC(=O)c2ccccc2C1=O.[Na+] (stereo not shown) [Menadione bisulfite (sodium)]
Difference [1, 14]: 0.03
Cholesterol-free [1, 17]: 1.466
Complete [1, 18]: 1.492
Cholesterol-free media + simvastatin (0.04 μM) [2, 26]: 0.991
Complete Media ([2]; drug in complete media): 0.8295
Difference [2, 13]: −0.16

CC1=CC(=O)c2ccccc2C1=O [Menadione]
Cholesterol-free [1, 17]: 0.7683
Complete [1, 18]: 1.342
Difference [1, 19]: 0.57
Cholesterol-free media + simvastatin (0.04 μM) [2, 20]: 1.102
Complete Media [2, 21]: 1.055
Difference [2, 22]: −0.05

CC(C)=CCC/C(C)=C/CC/C(C)=C/CC/C(C)=C/CC1=C(C)C(=O)c2ccccc2C1=O [Menaquinone-4]
Cholesterol-free [1, 9]: 1.129
Complete ([1]; NCI-H292 cells, complete media): 0.777
Difference [1, 10]: −0.35
Cholesterol-free media + simvastatin (0.04 μM) [2, 11]: 1.094
Complete Media [2, 12]: 0.773
Difference [2, 13]: −0.32

CC1CCC(C(C)C)C(O)C1 (stereo not shown) [Menthol]
Cholesterol-free [1, 17]: 0.9443
Complete [1, 18]: 1.129
Difference [1, 19]: 0.19
Cholesterol-free media + simvastatin (0.04 μM) [2, 26]: 1.031
Complete Media ([2]; drug in complete media): 0.8642
Difference [2, 13]: −0.17

Cc1ccccc1OCC(O)CO (stereo not shown) [Mephenesin]
Cholesterol-free [1, 17]: 0.8638
Complete [1, 18]: 1.459
Difference [1, 19]: 0.60
Cholesterol-free media + simvastatin (0.04 μM) [2, 15]: 1.225
Complete Media [2, 16]: 1.535
Difference [2, 8]: 0.31

CCC1(c2ccccc2)NC(=O)N(C)C1=O (stereo not shown) [Mephenytoin]
Difference [1, 23]: −0.62
Cholesterol-free [1, 24]: 1.604
Complete [1, 25]: 0.9878
Cholesterol-free media + simvastatin (0.04 μM) [2, 11]: 1.274
Complete Media [2, 12]: 1.003
Difference [2, 13]: −0.27

Cc1cccc(C)c1NC(=O)C1CCCCN1C (stereo not shown) [Mepivacaine (hydrochloride)]
Difference [1, 23]: −0.61
Cholesterol-free [1, 24]: 1.413
Complete [1, 25]: 0.805
Cholesterol-free media + simvastatin (0.04 μM) [2, 15]: 1.253
Complete Media [2, 16]: 1.396
Difference [2, 8]: 0.14
